Reference: patent US4593090A, “Novel nitrosourea compounds, method for preparing same, and pharmaceutical composition containing same” (Gogo Kimura, priority 1981, dated 1986)

Assays:
[1] = Acute toxicity (LD50, Behrens-Karber method); assay type: in vivo, ICR mice; settings: mouse, in vivo, ip, mortality during 30 days
Experimental: Test compounds, dissolved or suspended in 0.5% aqueous CMC, were each intraperitoneally administered to ICR mice in a dose of 0.1 ml per 10 g body weight. LD50 (mg/kg) value of each test compound was calculated from the mortality of mice during 30 days by the Behrens-Karber method.

Leukemia L1210 = assay: Activity against Leukemia L1210, intraperitoneal, increase in life span of mice; assay type: in vivo, female mice (BDF1 family); settings: for ED (maximum ILS) / ED30: Mus musculus, L1210, ip, ip once a day for 5 successive days; for ED (maximum ILS): daily dosage giving maximum increase of life span, read-out: O.D. (optimum dosage); for ED30: daily dosage increasing average survival days by 30%, read-out: ILS30; for Survivors after 60 days / Max. ILS % / Therapeutic ratio TR: ip; for Survivors after 60 days: 6-membered group; for Max. ILS %: 60-day observation, versus control; for Therapeutic ratio TR: O.D./ILS30
Experimental: Tests were conducted in accordance with the method for measuring antitumor activity of National Cancer Center Tokyo (A, Hoshi et al, Farumashia 9 464 (1973)). Test compounds were each intraperitoneally (referred to as ip) or orally (referred to as op) administered once a day for 5 successive days to a 6-membered group of femal mice (BDF1 family, each weighing 20 to 23 g) 24 hours after 1×10^5 cells of Leukemia L1210 have been implantated into the abdominal cavities of the mice, and the effect was evaluated by comparing the survival days of treated groups with those of an untreated group of mice (control group) in 60-day observation. An increase percentage of life span (ILS%) was calculated from said average survival days compared with those of the control group. Further, therapeutic ratio (O.D./ILD30, referred to as T.R.) of each tested compound was calculated from the daily dosage of the compound necessary to increase said average survival days by 30% as compared with the control group (this dosage is referred to as ILS 30) and the daily dosage giving a maximum increase of life span to mice implantated with L1210 cells, namely an optimum dosage (referred to as O.D.). The results of five successive days intraperitoneal administrations of test compounds were shown in Tables I to III, and those of five successive oral administrations in Table IV.

| SMILES | LD50 at 720 h [1] [mg/kg] | ED (maximum ILS) (Leukemia L1210) [mg/kg] | ED30 (Leukemia L1210) [mg/kg] | Survivors after 60 days (Leukemia L1210) | Max. ILS % (Leukemia L1210) [%] | Therapeutic ratio TR (Leukemia L1210) |
| --- | --- | --- | --- | --- | --- | --- |
| CC(C)CO[C@H]1O[C@H](CN(C(=O)N(CCCl)N=O)C(C)C)[C@@H](O)[C@H](O)[C@H]1O [Compound 13, 3-isopropyl-3-(isobutyl α-D-glucopyranose-6-yl)-1-(2-chloroethyl)-1-nitrosourea] | 375 | 120 | 2.77 | 6/6 | > 700 | 43.3 |
| COCC(C)N(C[C@H]1O[C@H](OC2CCCC2)[C@H](O)[C@@H](O)[C@@H]1O)C(=O)N(CCCl)N=O (stereo partly drawn) [Compound 172, 3-(1-methy-2-methoxyethyl)-3-(cyclopentyl α-D-glucopyranose-6-yl)-1-(2-chloroethyl)-1-nitrosourea] | 600 | 180 | 2.67 | 6/6 | > 700 | 67.3 |
| C=CCN(C[C@H]1O[C@H](OC2CCCCC2)[C@H](O)[C@@H](O)[C@@H]1O)C(=O)N(CCCl)N=O [Compound 38, 3-(2-propenyl) -3-(cyclohexyl α-D-glucopyranose-6-yl)-1-(2-chloroethyl)-1-nitrosourea] | 430 | 150 | 3.28 | 6/6 | > 700 | 45.7 |
| CCN(C(=O)N(CCCl)N=O)[C@H]1[C@@H](OCC(C)C)O[C@H](CO)[C@H](O)[C@@H]1O [Compound 121, 3-ethyl-3-(isobutyl α-D-galactopyranose-2-yl)-1-(2-chloroethyl)-1-nitrosourea] | 480 | 160 | 5.99 | 3/6 | > 350 | 26.7 |
| CCC(C)O[C@H]1O[C@H](CO)[C@@H](O)[C@H](O)[C@H]1N(CC(C)C)C(=O)N(CCCl)N=O (stereo partly drawn) [Compound 59, 3-isobutyl-3-(sec-butyl α-D-glucopyranose-2-yl)-1-(2-chloroethyl)-1-nitrosourea] | 605 | 200 | 5.8 | 3/6 | > 348 | 34.5 |
| CC(C)CN(C(=O)N(CCCl)N=O)[C@@H]1[C@@H](O)[C@@H](OC2CCCCC2)OC[C@H]1O [Compound 150, 3-isobutyl-3-(cyclohexyl α-D-xylopyranose-3-yl)-1-(2-chloroethyl)-1-nitrosourea] | 505 | 150 | 3.12 | 4/6 | > 420 | 48.1 |
| CC(C)CO[C@@H]1O[C@H](CN(CC(C)(C)C)C(=O)N(CCCl)N=O)[C@@H](O)[C@H](O)[C@H]1O [Compound 184, 3-neopentyl-3-(isobutyl β-D-glucopyranose-6-yl)-1-(2-chloroethyl)-1-nitrosourea] | 540 | 170 | 2.93 | 6/6 | > 700 | 58.0 |
| CCCCO[C@H]1O[C@H](CN(CCC)C(=O)N(CCCl)N=O)[C@H](O)[C@H](O)[C@H]1O [Compound 106, 3-n-propyl-3-(n-butyl α-D-galactopyranose-6-yl)-1-(2-chloroethyl)-1-nitrosourea] | 430 | 160 | 3.74 | 3/6 | > 340 | 42.8 |
| COc1cccc(CN(C[C@H]2O[C@H](OC3CCCCC3)[C@H](O)[C@@H](O)[C@@H]2O)C(=O)N(CCCl)N=O)c1OC [Compound 49, 3-(2,3-dimethoxybenzyl)-3-(cyclohexyl α-D-glucopyranose)-6-yl)-1-(2-chloroethyl-1-nitrosourea] | 560 | 170 | 4.74 | 4/6 | > 420 | 35.9 |
| C=C(C)CN(C(=O)N(CCCl)N=O)[C@H]1[C@@H](OC(C)CC)O[C@H](CO)[C@@H](O)[C@@H]1O (stereo partly drawn) [Compound 60, 3-(2-methyl-2-propenyl)-3-(sec-butyl α -D-glucopyranose-2-yl)-1-(2-chloroethyl)-1-nitrosourea] | 580 | 200 | 7.15 | 3/6 | > 345 | 28.0 |
| CCCN(C(=O)N(CCCl)N=O)C1C(CO)OC(OCC(C)C)C(O)C1O [Compound 90, 3-n-propyl-3-(isobutyl α-D-glucopyranose-4-yl)-1-(2-chloroethyl)-1-nitrosourea] | 325 | 100 | 3.07 | 3/6 | > 350 | 32.6 |
| C=C(C)CN(C(=O)N(CCCl)N=O)C1C(CO)OC(OC(C)CC)C(O)C1O [Compound 91, 3-(2-methyl-2-propenyl)-3-(sec-butyl α-D-glucopyranose-4-yl)-1-(2-chloroethyl)-1-nitrosourea] | 450 | 150 | 4.65 | 3/6 | > 340 | 32.3 |
| O=NN(CCCl)C(=O)N(CCCCO)C1C(OC2CCCCC2)OC(CO)C(O)C1O [Compound 66, 3-(4-hydroxy-n-butyl)-3-(cyclohexyl α-D-glucopyranose-2-yl)-1-(2-chloroethyl)-1-nitrosourea] | 620 | 200 | 8.55 | 3/6 | > 345 | 23.4 |
| CC(C)CO[C@H]1O[C@H](CN(CC(C)C)C(=O)N(CCCl)N=O)[C@@H](O)[C@H](O)[C@H]1O [Compound 14, 3-isobutyl-3-(isobutyl α-D-glucopyranose-6-yl)-1-(2-chloroethyl)-1-nitrosourea] | 510 | 170 | 3.32 | 6/6 | > 700 | 51.2 |
| COCCN(C(=O)N(CCCl)N=O)[C@@H]1[C@@H](OCCc2ccccc2)O[C@H](CO)[C@@H](O)[C@H]1O [Compound 142, 3-(2-methoxyethyl)-3-(phenyl-β-ethyl α-D-altropyranose-2-yl)-1-(2-chloroethyl)-1-nitrosourea] | 500 | 160 | 4.16 | 3/6 | > 350 | 38.5 |
| CC(C)CO[C@H]1O[C@H](CO)[C@H](O)[C@H](O)[C@H]1N(CC(C)C)C(=O)N(CCCl)N=O [Compound 122, 3-isobutyl-3-(isobutyl α-D-galactopyranose-2-yl)-1-(2-chloroethyl)-1-nitrosourea] | 715 | 200 | 6.85 | 3/6 | > 355 | 29.2 |
| COCC(C)O[C@H]1O[C@H](CN(CC2CC2)C(=O)N(CCCl)N=O)[C@@H](O)[C@H](O)[C@H]1O (stereo partly drawn) [Compound 34, 3-cyclopropylmethyl-3-(1-methyl-2-methoxyethyl α-D-glucopyranose-6-yl)-1-(2-chloroethyl)-1-nitrosourea] | 480 | 150 | 2.34 | 6/6 | > 700 | 64.1 |
| CC(C)(C)O[C@H]1O[C@H](CN(C(=O)N(CCCl)N=O)C2CCCCC2)[C@@H](O)[C@H](O)[C@H]1O [Compound 173, 3-cyclohexyl-3-(tert-butyl α-D-glucopyranose-6-yl)-1-(2-chloroethyl)-1-nitrosourea] | 510 | 160 | 3.16 | 5/6 | > 630 | 50.6 |
| CC(C)CO[C@H]1O[C@H](CN(Cc2cccs2)C(=O)N(CCCl)N=O)[C@H](O)[C@H](O)[C@H]1O [Compound 112, 3-(thiophene-2-yl-methyl)-3-(isobutyl α-D-galactopyranose-6-yl)-1-(2-chloroethyl)-1-nitrosourea] | 480 | 180 | 4.17 | 3/6 | > 350 | 43.2 |
| CC(C)CO[C@H]1O[C@H](CO)[C@@H](O)[C@H](O)[C@H]1N(CC(C)C)C(=O)N(CCCl)N=O [Compound 61, 3-isobutyl-3-(isobutyl α-D-glucopyranose-2-yl)-1-(2-chloroethyl)-1-nitrosourea] | 595 | 190 | 5.86 | 3/6 | > 340 | 32.4 |
